The text below walks through data of patent publication US20250214932A1, “T-TYPE CALCIUM CHANNEL MODULATORS COMPRISING AN AZASPIRONONANE CORE AND METHODS OF USE THEREOF” (Praxis Precision Medicines, Inc., priority 2022, published 2025).

Where only a bound is given, the exact number is not on record here.

As usually defined, the IC50 is the concentration that inhibits the measured activity by half.

Sequence of Human Cav3.1 (O43497 whole entry): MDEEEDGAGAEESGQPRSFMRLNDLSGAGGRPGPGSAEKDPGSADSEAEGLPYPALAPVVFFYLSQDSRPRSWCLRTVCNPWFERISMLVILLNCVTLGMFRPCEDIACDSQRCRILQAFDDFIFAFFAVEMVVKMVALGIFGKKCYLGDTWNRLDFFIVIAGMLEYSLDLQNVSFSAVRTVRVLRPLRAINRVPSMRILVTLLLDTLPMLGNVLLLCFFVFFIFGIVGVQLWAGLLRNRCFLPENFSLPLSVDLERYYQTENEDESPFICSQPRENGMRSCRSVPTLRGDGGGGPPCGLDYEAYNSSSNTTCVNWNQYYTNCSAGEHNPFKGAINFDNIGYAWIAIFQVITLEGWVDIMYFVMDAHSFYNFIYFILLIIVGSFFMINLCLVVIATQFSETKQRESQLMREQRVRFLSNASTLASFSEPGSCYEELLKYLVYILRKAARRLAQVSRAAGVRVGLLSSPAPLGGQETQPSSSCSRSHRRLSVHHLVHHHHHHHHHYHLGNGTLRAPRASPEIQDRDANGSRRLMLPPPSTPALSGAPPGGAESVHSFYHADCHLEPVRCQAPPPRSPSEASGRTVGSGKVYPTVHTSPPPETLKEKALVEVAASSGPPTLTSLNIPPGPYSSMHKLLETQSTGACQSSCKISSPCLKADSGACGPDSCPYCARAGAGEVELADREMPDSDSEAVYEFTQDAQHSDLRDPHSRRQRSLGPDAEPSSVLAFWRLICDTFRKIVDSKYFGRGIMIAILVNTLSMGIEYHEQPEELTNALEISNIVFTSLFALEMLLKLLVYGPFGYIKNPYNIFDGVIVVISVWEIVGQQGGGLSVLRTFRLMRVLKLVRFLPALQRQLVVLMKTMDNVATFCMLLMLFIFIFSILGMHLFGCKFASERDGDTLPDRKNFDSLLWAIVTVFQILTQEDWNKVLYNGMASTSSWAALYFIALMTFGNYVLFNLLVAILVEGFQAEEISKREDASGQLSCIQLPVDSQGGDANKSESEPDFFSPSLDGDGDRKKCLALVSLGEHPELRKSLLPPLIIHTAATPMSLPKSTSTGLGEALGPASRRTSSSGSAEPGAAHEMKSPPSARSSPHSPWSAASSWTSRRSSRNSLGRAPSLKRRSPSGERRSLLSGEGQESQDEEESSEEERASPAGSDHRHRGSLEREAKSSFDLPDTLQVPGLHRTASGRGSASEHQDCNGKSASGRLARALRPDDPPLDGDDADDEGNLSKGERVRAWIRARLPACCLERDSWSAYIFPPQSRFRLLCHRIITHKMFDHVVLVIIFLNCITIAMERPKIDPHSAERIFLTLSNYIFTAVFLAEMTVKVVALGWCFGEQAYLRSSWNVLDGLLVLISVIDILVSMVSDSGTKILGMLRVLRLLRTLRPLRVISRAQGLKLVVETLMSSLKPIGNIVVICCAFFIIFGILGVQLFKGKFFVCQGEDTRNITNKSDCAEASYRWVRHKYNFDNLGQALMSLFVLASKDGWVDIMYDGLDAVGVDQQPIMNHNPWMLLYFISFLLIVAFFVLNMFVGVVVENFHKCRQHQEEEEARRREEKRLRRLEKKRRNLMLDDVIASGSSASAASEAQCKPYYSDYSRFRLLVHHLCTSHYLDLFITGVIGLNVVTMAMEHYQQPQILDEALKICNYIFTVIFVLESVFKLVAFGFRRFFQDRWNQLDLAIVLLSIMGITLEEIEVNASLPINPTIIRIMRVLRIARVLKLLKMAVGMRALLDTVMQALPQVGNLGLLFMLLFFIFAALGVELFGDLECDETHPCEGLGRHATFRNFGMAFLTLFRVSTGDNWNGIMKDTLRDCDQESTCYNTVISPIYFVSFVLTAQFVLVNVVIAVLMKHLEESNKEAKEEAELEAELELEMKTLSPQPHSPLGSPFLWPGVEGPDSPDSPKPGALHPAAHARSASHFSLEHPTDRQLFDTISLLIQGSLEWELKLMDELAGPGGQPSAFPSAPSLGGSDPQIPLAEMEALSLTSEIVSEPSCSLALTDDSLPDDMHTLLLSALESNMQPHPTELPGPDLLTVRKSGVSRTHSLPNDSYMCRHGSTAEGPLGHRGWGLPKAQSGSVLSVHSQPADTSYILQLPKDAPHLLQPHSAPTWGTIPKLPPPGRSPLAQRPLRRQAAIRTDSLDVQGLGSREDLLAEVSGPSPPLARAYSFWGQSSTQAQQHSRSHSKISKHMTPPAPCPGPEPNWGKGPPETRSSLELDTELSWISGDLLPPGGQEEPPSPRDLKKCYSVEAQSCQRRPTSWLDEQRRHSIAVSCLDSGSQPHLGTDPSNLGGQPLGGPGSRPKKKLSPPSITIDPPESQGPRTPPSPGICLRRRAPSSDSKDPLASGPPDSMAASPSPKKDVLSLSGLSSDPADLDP

One series relates to absence seizures.
Experiment: not given
As to conditions: patients treated with either of these drugs; cited from earlier work.
For the compound `CCCC(CCC)C(=O)O` [valproate], the “intolerable side effects, patients affected” value is recorded as 24%.

A further series has as its target Human Cav3.1 (Homo sapiens (Human), UniProt O43497). As to the kind of experiment: Human Cav3.1 calcium channel patch clamp assay (SyncroPatch 384PE, HEK-293 natClytin/TASK1+Cav3.1 cell line). Format: cell-based. The settings on record: voltage dependent block (VDB); read-out: Cav3.1 (VDB) IC50. The protocol: Pulse generation and data collection were performed with PatchController384 V1.3.0 and DataController384 V1.2.1 (Nanion Technologies). Off-line analysis was performed using Excel and Graphpad Prism (V 8.4.2) with complete data files uploaded to Dotmatics. The access resistance and apparent membrane capacitance were estimated using built-in protocols. Current was recorded in whole cell configuration from a population of cells. The cells were lifted, triturated, and resuspended at 800,000 cells/ml. The cells were allowed to recover in the cell hotel prior to experimentation. Currents were recorded at room temperature. The external solution contained the following (in mM): NaCl 80, NMDG 60, KCl 4, MgCl2 1, CaCl2 6, glucose 5 and HEPES 10 (pH=7.4, Osmolarity ˜300 mOsm). The extracellular solution was used as the wash, reference and compound delivery solution. […] The compound plate was created at 2× concentrated in the extracellular solution. The compound was diluted to 1:2 when added to the recording well. The amount of DMSO in the extracellular solution was held constant at the level used for the highest tested concentration. For the voltage clamp experiments on Cav3.1, data were sampled at 10 KHz. After establishment of the seal and the passage in the whole cell configuration, the cells were held at −120 mV. Cav3.1 current was evoked using a 100 ms step to −20 mV (to measure resting state block), followed by a 1600 ms step to −65 mV and a second 100 ms step to −20 mV (to measure voltage dependent block). The voltage protocol was applied every 15 seconds in the absence and in the presence of the compounds under investigation. […] Current amplitude (pA) was measured in the peak 1 and 2. The average of last 3 sweeps of each liquid period (vehicle, compound under investigation, full block) was calculated. Nickel-sensitive current was used to calculate the % of inhibition in the presence of the compound under investigation.
Pulse generation and data collection were performed with PatchController384 V1.3.0 and DataController384 V1.2.1 (Nanion Technologies). Off-line analysis was performed using Excel and Graphpad Prism (V 8.4.2) with complete data files uploaded to Dotmatics. The access resistance and apparent membrane capacitance were estimated using built-in protocols. Current was recorded in whole cell configuration from a population of cells.
The cells were lifted, triturated, and resuspended at 800,000 cells/ml. The cells were allowed to recover in the cell hotel prior to experimentation. Currents were recorded at room temperature. The external solution contained the following (in mM): NaCl 80, NMDG 60, KCl 4, MgCl2 1, CaCl2 6, glucose 5 and HEPES 10 (pH=7.4, Osmolarity ˜300 mOsm). The extracellular solution was used as the wash, reference and compound delivery solution.
The compound plate was created at 2× concentrated in the extracellular solution. The compound was diluted to 1:2 when added to the recording well. The amount of DMSO in the extracellular solution was held constant at the level used for the highest tested concentration. For the voltage clamp experiments on Cav3.1, data were sampled at 10 KHz. After establishment of the seal and the passage in the whole cell configuration, the cells were held at −120 mV. Cav3.1 current was evoked using a 100 ms step to −20 mV (to measure resting state block), followed by a 1600 ms step to −65 mV and a second 100 ms step to −20 mV (to measure voltage dependent block). The voltage protocol was applied every 15 seconds in the absence and in the presence of the compounds under investigation. […] Current amplitude (pA) was measured in the peak 1 and 2. The average of last 3 sweeps of each liquid period (vehicle, compound under investigation, full block) was calculated. Nickel-sensitive current was used to calculate the % of inhibition in the presence of the compound under investigation.
On the technique in general: In patch-clamp work, channel activity is measured electrically.
Turning to `O=C(CN1CC2(CCC(C(=O)Nc3cccc(C(F)F)c3)CC2)C1)NC1(C(F)(F)F)CC1` [Example 111], the IC50 is 932 nM.

Turning to `COc1cccc(NC(=O)C2CCC3(CC2)CN(CC(=O)NC2(C(F)(F)F)CC2)C3)c1` [Example 112], the IC50 worked out at 1430 nM.

For `[2H]C([2H])([2H])C(NC(=O)CN1CC2(CCC(C(=O)Nc3cc(F)cc(OC)c3)CC2)C1)(C([2H])([2H])[2H])C([2H])([2H])[2H]` [Example 113], the IC50 was 415 nM.

For the compound `CCOc1cccc(NC(=O)C2CCC3(CC2)CN(CC(=O)NC2(C(F)(F)F)CC2)C3)c1` [Example 114], the IC50 came to 1130 nM.

As to `O=C(CN1CC2(CCC(C(=O)Nc3ccc(F)c(Cl)c3)CC2)C1)NC1(C(F)(F)F)CC1` [Example 115], the half-maximal inhibitory concentration (IC50) is 219 nM.

With `Cc1cccc(NC(=O)C2CCC3(CC2)CN(CC(=O)NC2(C(F)(F)F)CC2)C3)c1` [Example 116], the IC50 was 691 nM.

On to `Cc1cc(F)cc(NC(=O)C2CCC3(CC2)CN(CC(=O)NC2(C(F)(F)F)CC2)C3)c1` [Example 117], for which the half-maximal inhibitory concentration (IC50) was found to be 221 nM.

On to `N#CC1(CN2CC3(CCC(C(=O)Nc4cc(F)cc(Cl)c4)CC3)C2)CC1` [Example 118], for which the half-maximal inhibitory concentration (IC50) was determined as 529 nM.

Consider `O=C(CN1CC2(CCC(C(=O)Nc3cc(F)cc(OC(F)F)c3)CC2)C1)NC1(C(F)(F)F)CC1` [Example 119], for which the IC50 was found to be 366 nM.

On to `O=C(CN1CC2(CCC(C(=O)Nc3ccc(Cl)c(F)c3)CC2)C1)NC1(C(F)(F)F)CC1` [Example 120], for which the IC50 was determined as 1070 nM.

As to `CC(C)(C#N)CN1CC2(CCC(C(=O)Nc3cc(F)cc(Cl)c3)CC2)C1` [Example 121], the IC50 is 1260 nM.

Regarding `N#CC1(CN2CC3(CCC(C(=O)Nc4cc(F)cc(Cl)c4)CC3)C2)CCC1` [Example 122], the IC50 turned out to be 750 nM.

As to `O=C(CN1CC2(CCC(C(=O)Nc3ccc(F)c(OC(F)(F)F)c3)CC2)C1)NC1(C(F)(F)F)CC1` [Example 123], the concentration for half-maximal inhibition (IC50) came to 297 nM.

As to `O=C(CN1CC2(CCC(C(=O)Nc3ccc(F)c(OC(F)F)c3)CC2)C1)NC1(C(F)(F)F)CC1` [Example 124], the half-maximal inhibitory concentration (IC50) came to 149 nM.

For `COc1cc(NC(=O)C2CCC3(CC2)CN(CC(=O)NC2(C(F)(F)F)CC2)C3)ccc1F` [Example 125], the half-inhibitory concentration (IC50) came to 588 nM.

`O=C(CN1CC2(CCC(C(=O)Nc3ccc(F)c(C(F)(F)F)c3)CC2)C1)NC1(C(F)(F)F)CC1` [Example 126]: the half-inhibitory concentration (IC50) is 723 nM.

On to `O=C(CN1CC2(CCC(C(=O)Nc3ccc(F)c(C(F)F)c3)CC2)C1)NC1(C(F)(F)F)CC1` [Example 127], for which the IC50 is 492 nM.

Take `N#CC1(CN2CC3(CCC(C(=O)Nc4cc(Cl)cc(Cl)c4)CC3)C2)CC1` [Example 128]: the IC50 stood at 572 nM.

With `N#CC1(CN2CC3(CCC(C(=O)Nc4cc(F)cc(Cl)c4)CC3)C2)CCCC1` [Example 130], the IC50 was 296 nM.

As for `N#CC1(CN2CC3(CCC(C(=O)NCc4cc(F)cc(Cl)c4)CC3)C2)CCCCC1` [Example 131], the IC50 came to 664 nM.

In the case of `Cc1cc(NC(=O)C2CCC3(CC2)CN(CC(=O)NC2(C(F)(F)F)CC2)C3)ccc1F` [Example 132], the IC50 turned out to be 400 nM.

As to `N#CC1(CN2CC3(CCC(C(=O)Nc4cc(F)cc(OC(F)F)c4)CC3)C2)CCCCC1` [Example 133], the IC50 turned out to be 432 nM.

`N#CC1(CN2CC3(CCC(C(=O)Nc4cc(F)cc(C(F)F)c4)CC3)C2)CC1` [Example 134]: the half-maximal inhibitory concentration (IC50) amounted to 1500 nM.

As to `N#CC1(CN2CC3(CCC(C(=O)Nc4cc(F)cc(OC(F)F)c4)CC3)C2)CC1` [Example 135], the half-maximal inhibitory concentration (IC50) is 1010 nM.

Regarding `Cc1cc(Cl)cc(NC(=O)C2CCC3(CC2)CN(CC2(C#N)CC2)C3)c1` [Example 136], the half-inhibitory concentration (IC50) is 991 nM.

For `N#CC1(CN2CC3(CCC(C(=O)Nc4cc(Cl)cc(OC(F)F)c4)CC3)C2)CC1` [Example 137], the half-inhibitory concentration (IC50) worked out at 1260 nM.

For `COc1cc(F)cc(NC(=O)C2CCC3(CC2)CN(CC2(C#N)CC2)C3)c1` [Example 138], the 50% inhibitory concentration (IC50) was 2270 nM.

In the case of `N#CC1(CN2CC3(CCC(C(=O)Nc4cc(F)cc(Cl)c4)CC3)C2)CCOCC1` [Example 139], the half-inhibitory concentration (IC50) amounted to 1370 nM.

With `O=C(CN1CC2(CCC(C(=O)Nc3cc(F)cc(Cl)c3)CC2)C1)NC1(C(F)F)CC1` [Example 140], the 50% inhibitory concentration (IC50) amounted to 283 nM.

Turning to `Cc1cc(Cl)cc(NC(=O)C2CCC3(CC2)CN(CC2(C#N)CCOCC2)C3)c1` [Example 141], the IC50 came out at 1200 nM.

`N#CC1(CN2CC3(CCC(C(=O)Nc4cc(F)cc(Cl)c4)CC3)C2)CCOC1` (centres unmarked) [Example 142]: the IC50 is 2230 nM.

As to `O=C(CN1CC2(CCC(CNC(=O)c3cc(F)cc(Cl)c3)CC2)C1)NC1(C(F)(F)F)CC1` [Example 143], the IC50 came to 373 nM.

Take `Cc1cc(F)cc(C(=O)NCC2CCC3(CC2)CN(CC(=O)NC(C)(C)C)C3)c1` [Example 144]: the concentration for half-maximal inhibition (IC50) was 804 nM.

For `CC(C)(C)NC(=O)CN1CC2(CCC(CNC(=O)c3cccc(Cl)c3)CC2)C1` [Example 145], the concentration for half-maximal inhibition (IC50) worked out at 569 nM.

`CC(C)(NC(=O)CN1CC2(CCC(CNC(=O)c3cccc(Cl)c3)CC2)C1)C(F)(F)F` [Example 146]: the half-maximal inhibitory concentration (IC50) worked out at 435 nM.

In the case of `O=C(CN1CC2(CCC(CNC(=O)c3cccc(Cl)c3)CC2)C1)NC1(C(F)(F)F)CC1` [Example 147], the IC50 came out at 534 nM.

With `O=C(CN1CC2(CCC(C(=O)NC34CCC(CC3)CC4)CC2)C1)NC1(C(F)(F)F)CC1` [Example 148], the IC50 turned out to be 357 nM.

As to `O=C(NC12CCC(CC1)CC2)C1CCC2(CC1)CN(CC1(F)CCC(F)(F)CC1)C2` [Example 149], the IC50 worked out at 688 nM.

`O=C(CN1CC2(CCC(C(=O)NC34CCC(CC3)C4)CC2)C1)NC1(C(F)(F)F)CC1` [Example 150]: the IC50 stood at 1960 nM.

As to `O=C(CN1CC2(CCC(C(=O)NC34CC5CC(CC(C5)C3)C4)CC2)C1)NC1(C(F)(F)F)CC1` [Example 151], the IC50 was 404 nM.

On to `CC(C)(C)C(O)CN1CC2(CCC(C(=O)NC34CC5CC(CC(C5)C3)C4)CC2)C1` (centres unmarked) [Example 152], for which the IC50 amounted to 583 nM.

As for `CC(C)(C)CCN1CC2(CCC(C(=O)NC34CC5CC(CC(C5)C3)C4)CC2)C1` [Example 154], the IC50 is 1290 nM.

Regarding `O=C(NC12CCC(CC1)CC2)C1CCC2(CC1)CN(CC1(O)CCC(F)(F)CC1)C2` [Example 155], the IC50 is 606 nM.

With `COc1cc(NC(=O)C2CCC3(CC2)CN(CC(=O)NC(C)(C)C)C3)ccc1F` [Example 156], the IC50 was determined as 300 nM.

Turning to `COc1cc(NC(=O)C2CCC3(CC2)CN(CC(=O)NC(C)(C)C)C3)ccc1Cl` [Example 157], the IC50 was determined as 129 nM.

Take `COc1cc(NC(=O)C2CCC3(CC2)CN(CC(=O)NC2(C(F)(F)F)CC2)C3)ccc1Cl` [Example 158]: the IC50 was 162 nM.

For `COc1cc(Cl)cc(NC(=O)C2CCC3(CC2)CN(CC(=O)NC(C)(C)C)C3)c1` [Example 159], the half-inhibitory concentration (IC50) was 159 nM.

As to `COc1cc(Cl)cc(NC(=O)C2CCC3(CC2)CN(CC(=O)NC2(C(F)(F)F)CC2)C3)c1` [Example 160], the IC50 is < 78.2 nM.

`CC(C)(C)CCN1CC2(CCC(C(=O)Nc3cc(F)cc(Cl)c3)CC2)C1` [Example 161]: the 50% inhibitory concentration (IC50) was 252 nM.
